# According to US20260166128A1, “HUMAN AMYLIN ANALOG, AND DERIVATIVE THEREOF AND USE THEREOF” (priority 2022, published 2026):
# Numbered stars: 1 amine (or outer) side, 2 acyl side, 3 side chain; on linkers, the order of the positions; unused ones are H or OH. Bridge positions count the residues as written; N and C are the ends. Square brackets hold non-standard residues; d marks the D form. Side chains are listed from the residue outwards. Peptide text beside a SMILES is read from it. * marks the point of attachment. C20 diacid = O=C(O)CCCCCCCCCCCCCCCCCCC(=O)*; C18 diacid = O=C(O)CCCCCCCCCCCCCCCCC(=O)*; γGlu = O=C(O)[C@H](CCC(=O)[*:2])N[*:1]; Hyp = O=C(O)[C@@H]1C[C@@H](O)CN1; AEEA = NCCOCCOCC(=O)O
# Target: T1, human amylin receptor (Homo sapiens, UniProt O60896+P30988)
# T1 construct: host or cells: CHO-K1/Ga15/AMY3 cells, further stably transfected with a CRE-luciferase plasmid
# T1 sequence (P30988 25-474): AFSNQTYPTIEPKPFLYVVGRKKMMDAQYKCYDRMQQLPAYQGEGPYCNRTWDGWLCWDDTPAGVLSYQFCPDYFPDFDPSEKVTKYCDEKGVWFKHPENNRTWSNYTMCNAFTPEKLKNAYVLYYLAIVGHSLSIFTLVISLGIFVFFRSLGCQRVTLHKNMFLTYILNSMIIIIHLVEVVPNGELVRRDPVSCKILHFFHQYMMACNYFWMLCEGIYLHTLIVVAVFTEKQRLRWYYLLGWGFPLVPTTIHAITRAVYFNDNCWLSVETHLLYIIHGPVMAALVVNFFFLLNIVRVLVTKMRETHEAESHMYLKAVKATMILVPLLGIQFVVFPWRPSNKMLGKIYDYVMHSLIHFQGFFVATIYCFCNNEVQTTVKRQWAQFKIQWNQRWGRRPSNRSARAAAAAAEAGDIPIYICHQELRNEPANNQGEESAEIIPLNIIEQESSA
# T1 sequence (O60896 24-148 partner): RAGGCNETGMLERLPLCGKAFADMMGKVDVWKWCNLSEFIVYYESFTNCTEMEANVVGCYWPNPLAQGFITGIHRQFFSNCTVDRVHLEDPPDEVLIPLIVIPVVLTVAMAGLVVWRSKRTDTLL
# Experiment: Luciferase assay of amylin derivatives in amylin receptor/CRE-luc CHO cell line
# Assay type: cell-based
# Conditions: CHO-K1/Ga15/AMY3 CRE-luc cells, 24 hours incubation, F12 medium containing 10% FBS; read-out: EC50
# Protocol: The experiment was intended to detect the activity or efficacy of the amylin derivatives on a human amylin receptor in vitro by luciferase assay.
# 50 μL of growth medium (F12 medium containing 10% FBS) was added into each well of a white 96-well plate, and the stably transfected amylin/CRE-lue CHO cells were inoculated into the white 96-well plate at a density of about 20,000 cells/well for activity determination.
row,EC50,SMILES
1,0.026 nM,CC[C@H](C)[C@H](NC(=O)[C@@H]1CCCN1C(=O)[C@H](CCCCNC(=O)COCCOCCNC(=O)CC[C@H](NC(=O)CCCCCCCCCCCCCCCCCCC(=O)O)C(=O)O)NC(=O)[C@H](CC(C)C)NC(=O)[C@H](CC(N)=O)NC(=O)[C@H](CC(N)=O)NC(=O)[C@H](CO)NC(=O)[C@H](CO)NC(=O)[C@H](Cc1c[nH]cn1)NC(=O)[C@H](CCCNC(=N)N)NC(=O)[C@H](CC(C)C)NC(=O)[C@H](Cc1ccccc1)NC(=O)[C@H](CC(=O)O)NC(=O)[C@H](C)NC(=O)[C@H](CC(C)C)NC(=O)[C@H](CCCNC(=N)N)NC(=O)[C@H](CCC(N)=O)NC(=O)[C@@H](NC(=O)[C@H](C)NC(=O)[C@@H]1CSSC[C@H](NC(=O)[C@@H](N)CCCNC(=N)N)C(=O)N[C@@H](CC(N)=O)C(=O)N[C@@H]([C@@H](C)O)C(=O)N[C@@H](C)C(=O)N[C@@H]([C@@H](C)O)C(=O)N1)[C@@H](C)O)C(=O)N[C@@H](CC(C)C)C(=O)N1CCC[C@H]1C(=O)N1CCC[C@H]1C(=O)N[C@H](C(=O)N[C@@H](CC(N)=O)C(=O)N[C@H](C(=O)NCC(=O)N[C@@H](CO)C(=O)N[C@@H](CC(N)=O)C(=O)N[C@H](C(=O)N1C[C@H](O)C[C@H]1C(N)=O)[C@@H](C)O)C(C)C)[C@@H](C)O [PD106] (H-RCNTATCATQRLADFLRHSSNNLK([AEEA-γGlu-C20 diacid])PILPPTNVGSNT[Hyp]-NH2; disulfide 2-7)
2,0.027 nM,CC[C@H](C)[C@H](NC(=O)[C@@H]1CCCN1C(=O)[C@H](CCCCNC(=O)CC[C@H](NC(=O)CCCCCCCCCCCCCCCCC(=O)O)C(=O)O)NC(=O)[C@H](CC(C)C)NC(=O)[C@H](CC(N)=O)NC(=O)[C@H](CC(N)=O)NC(=O)[C@H](CO)NC(=O)[C@H](CO)NC(=O)[C@H](Cc1c[nH]cn1)NC(=O)[C@H](CCCNC(=N)N)NC(=O)[C@H](CC(C)C)NC(=O)[C@H](Cc1ccccc1)NC(=O)[C@H](CC(=O)O)NC(=O)[C@H](C)NC(=O)[C@H](CC(C)C)NC(=O)[C@H](CCCNC(=N)N)NC(=O)[C@H](CCC(N)=O)NC(=O)[C@@H](NC(=O)[C@H](C)NC(=O)[C@@H]1CSSC[C@H](NC(=O)[C@@H](N)CCCNC(=N)N)C(=O)N[C@@H](CC(N)=O)C(=O)N[C@@H]([C@@H](C)O)C(=O)N[C@@H](C)C(=O)N[C@@H]([C@@H](C)O)C(=O)N1)[C@@H](C)O)C(=O)N[C@@H](CC(C)C)C(=O)N1CCC[C@H]1C(=O)N1CCC[C@H]1C(=O)N[C@H](C(=O)N[C@@H](CC(N)=O)C(=O)N[C@H](C(=O)NCC(=O)N[C@@H](CO)C(=O)N[C@@H](CC(N)=O)C(=O)N[C@H](C(=O)N1C[C@H](O)C[C@H]1C(N)=O)[C@@H](C)O)C(C)C)[C@@H](C)O [PD107] (H-RCNTATCATQRLADFLRHSSNNLK([γGlu-C18 diacid])PILPPTNVGSNT[Hyp]-NH2; disulfide 2-7)
3,0.01 nM,CC[C@H](C)[C@H](NC(=O)[C@@H]1CCCN1C(=O)[C@H](CCCCNC(=O)COCCOCCNC(=O)COCCOCCNC(=O)CC[C@H](NC(=O)CCCCCCCCCCCCCCCCC(=O)O)C(=O)O)NC(=O)[C@H](CC(C)C)NC(=O)[C@H](CC(N)=O)NC(=O)[C@H](CC(N)=O)NC(=O)[C@H](CO)NC(=O)[C@H](CO)NC(=O)[C@H](Cc1c[nH]cn1)NC(=O)[C@H](CCCNC(=N)N)NC(=O)[C@H](CC(C)C)NC(=O)[C@H](Cc1ccccc1)NC(=O)[C@H](CC(=O)O)NC(=O)[C@H](C)NC(=O)[C@H](CC(C)C)NC(=O)[C@H](CCCNC(=N)N)NC(=O)[C@H](CCC(N)=O)NC(=O)[C@@H](NC(=O)[C@H](C)NC(=O)[C@@H]1CSSC[C@H](NC(=O)[C@@H](N)CCCNC(=N)N)C(=O)N[C@@H](CC(N)=O)C(=O)N[C@@H]([C@@H](C)O)C(=O)N[C@@H](C)C(=O)N[C@@H]([C@@H](C)O)C(=O)N1)[C@@H](C)O)C(=O)N[C@@H](CC(C)C)C(=O)N1CCC[C@H]1C(=O)N1CCC[C@H]1C(=O)N[C@H](C(=O)N[C@@H](CC(N)=O)C(=O)N[C@H](C(=O)NCC(=O)N[C@@H](CO)C(=O)N[C@@H](CC(N)=O)C(=O)N[C@H](C(=O)N1C[C@H](O)C[C@H]1C(N)=O)[C@@H](C)O)C(C)C)[C@@H](C)O [PD109] (H-RCNTATCATQRLADFLRHSSNNLK([AEEA-AEEA-γGlu-C18 diacid])PILPPTNVGSNT[Hyp]-NH2; disulfide 2-7)
4,0.039 nM,CC[C@H](C)[C@H](NC(=O)[C@@H]1CCCN1C(=O)CNC(=O)[C@H](CCCCNC(=O)COCCOCCNC(=O)CC[C@H](NC(=O)CCCCCCCCCCCCCCCCCCC(=O)O)C(=O)O)NC(=O)[C@H](CC(N)=O)NC(=O)[C@H](CC(N)=O)NC(=O)[C@H](CO)NC(=O)[C@H](CO)NC(=O)[C@H](Cc1c[nH]cn1)NC(=O)[C@H](CCCNC(=N)N)NC(=O)[C@H](CC(C)C)NC(=O)[C@H](Cc1ccccc1)NC(=O)[C@H](CC(=O)O)NC(=O)[C@H](C)NC(=O)[C@H](CC(C)C)NC(=O)[C@H](CCCNC(=N)N)NC(=O)[C@H](CCC(N)=O)NC(=O)[C@@H](NC(=O)[C@H](C)NC(=O)[C@@H]1CSSC[C@H](NC(=O)[C@@H](N)CCCNC(=N)N)C(=O)N[C@@H](CC(N)=O)C(=O)N[C@@H]([C@@H](C)O)C(=O)N[C@@H](C)C(=O)N[C@@H]([C@@H](C)O)C(=O)N1)[C@@H](C)O)C(=O)N[C@@H](CC(C)C)C(=O)N1CCC[C@H]1C(=O)N1CCC[C@H]1C(=O)N[C@H](C(=O)N[C@@H](CC(N)=O)C(=O)N[C@H](C(=O)NCC(=O)N[C@@H](CO)C(=O)N[C@@H](CC(N)=O)C(=O)N[C@H](C(=O)N1C[C@H](O)C[C@H]1C(N)=O)[C@@H](C)O)C(C)C)[C@@H](C)O [PD110] (H-RCNTATCATQRLADFLRHSSNNK([AEEA-γGlu-C20 diacid])GPILPPTNVGSNT[Hyp]-NH2; disulfide 2-7)
5,0.008 nM,CC[C@H](C)[C@H](NC(=O)[C@@H]1CCCN1C(=O)CNC(=O)[C@H](CCCCNC(=O)COCCOCCNC(=O)CC[C@H](NC(=O)CCCCCCCCCCCCCCCCC(=O)O)C(=O)O)NC(=O)[C@H](CC(N)=O)NC(=O)[C@H](CC(N)=O)NC(=O)[C@H](CO)NC(=O)[C@H](CO)NC(=O)[C@H](Cc1c[nH]cn1)NC(=O)[C@H](CCCNC(=N)N)NC(=O)[C@H](CC(C)C)NC(=O)[C@H](Cc1ccccc1)NC(=O)[C@H](CC(=O)O)NC(=O)[C@H](C)NC(=O)[C@H](CC(C)C)NC(=O)[C@H](CCCNC(=N)N)NC(=O)[C@H](CCC(N)=O)NC(=O)[C@@H](NC(=O)[C@H](C)NC(=O)[C@@H]1CSSC[C@H](NC(=O)[C@@H](N)CCCNC(=N)N)C(=O)N[C@@H](CC(N)=O)C(=O)N[C@@H]([C@@H](C)O)C(=O)N[C@@H](C)C(=O)N[C@@H]([C@@H](C)O)C(=O)N1)[C@@H](C)O)C(=O)N[C@@H](CC(C)C)C(=O)N1CCC[C@H]1C(=O)N1CCC[C@H]1C(=O)N[C@H](C(=O)N[C@@H](CC(N)=O)C(=O)N[C@H](C(=O)NCC(=O)N[C@@H](CO)C(=O)N[C@@H](CC(N)=O)C(=O)N[C@H](C(=O)N1C[C@H](O)C[C@H]1C(N)=O)[C@@H](C)O)C(C)C)[C@@H](C)O [PD111] (H-RCNTATCATQRLADFLRHSSNNK([AEEA-γGlu-C18 diacid])GPILPPTNVGSNT[Hyp]-NH2; disulfide 2-7)
6,0.03 nM,CC[C@H](C)[C@H](NC(=O)[C@@H]1CCCN1C(=O)CNC(=O)[C@H](CC(C)C)NC(=O)[C@H](CCCCNC(=O)COCCOCCNC(=O)CC[C@H](NC(=O)CCCCCCCCCCCCCCCCCCC(=O)O)C(=O)O)NC(=O)[C@H](CC(N)=O)NC(=O)[C@H](CO)NC(=O)[C@H](CO)NC(=O)[C@H](Cc1c[nH]cn1)NC(=O)[C@H](CCCNC(=N)N)NC(=O)[C@H](CC(C)C)NC(=O)[C@H](Cc1ccccc1)NC(=O)[C@H](CC(=O)O)NC(=O)[C@H](C)NC(=O)[C@H](CC(C)C)NC(=O)[C@H](CCCNC(=N)N)NC(=O)[C@H](CCC(N)=O)NC(=O)[C@@H](NC(=O)[C@H](C)NC(=O)[C@@H]1CSSC[C@H](NC(=O)[C@@H](N)CCCNC(=N)N)C(=O)N[C@@H](CC(N)=O)C(=O)N[C@@H]([C@@H](C)O)C(=O)N[C@@H](C)C(=O)N[C@@H]([C@@H](C)O)C(=O)N1)[C@@H](C)O)C(=O)N[C@@H](CC(C)C)C(=O)N1CCC[C@H]1C(=O)N1CCC[C@H]1C(=O)N[C@H](C(=O)N[C@@H](CC(N)=O)C(=O)N[C@H](C(=O)NCC(=O)N[C@@H](CO)C(=O)N[C@@H](CC(N)=O)C(=O)N[C@H](C(=O)N1C[C@H](O)C[C@H]1C(N)=O)[C@@H](C)O)C(C)C)[C@@H](C)O [PD112] (H-RCNTATCATQRLADFLRHSSNK([AEEA-γGlu-C20 diacid])LGPILPPTNVGSNT[Hyp]-NH2; disulfide 2-7)
7,0.017 nM,CC[C@H](C)[C@H](NC(=O)[C@@H]1CCCN1C(=O)CNC(=O)[C@H](CC(C)C)NC(=O)[C@H](CCCCNC(=O)COCCOCCNC(=O)CC[C@H](NC(=O)CCCCCCCCCCCCCCCCC(=O)O)C(=O)O)NC(=O)[C@H](CC(N)=O)NC(=O)[C@H](CO)NC(=O)[C@H](CO)NC(=O)[C@H](Cc1c[nH]cn1)NC(=O)[C@H](CCCNC(=N)N)NC(=O)[C@H](CC(C)C)NC(=O)[C@H](Cc1ccccc1)NC(=O)[C@H](CC(=O)O)NC(=O)[C@H](C)NC(=O)[C@H](CC(C)C)NC(=O)[C@H](CCCNC(=N)N)NC(=O)[C@H](CCC(N)=O)NC(=O)[C@@H](NC(=O)[C@H](C)NC(=O)[C@@H]1CSSC[C@H](NC(=O)[C@@H](N)CCCNC(=N)N)C(=O)N[C@@H](CC(N)=O)C(=O)N[C@@H]([C@@H](C)O)C(=O)N[C@@H](C)C(=O)N[C@@H]([C@@H](C)O)C(=O)N1)[C@@H](C)O)C(=O)N[C@@H](CC(C)C)C(=O)N1CCC[C@H]1C(=O)N1CCC[C@H]1C(=O)N[C@H](C(=O)N[C@@H](CC(N)=O)C(=O)N[C@H](C(=O)NCC(=O)N[C@@H](CO)C(=O)N[C@@H](CC(N)=O)C(=O)N[C@H](C(=O)N1C[C@H](O)C[C@H]1C(N)=O)[C@@H](C)O)C(C)C)[C@@H](C)O [PD113] (H-RCNTATCATQRLADFLRHSSNK([AEEA-γGlu-C18 diacid])LGPILPPTNVGSNT[Hyp]-NH2; disulfide 2-7)
